Measurements: ChEMBL document CHEMBL5356985, “Development of trisubstituted thiophene-3-arboxamide selenide derivatives as novel EGFR kinase inhibitors with cytotoxic activity” (RSC Med Chem, 2023)
Active and inactive are the calls of the source. The rule behind the calls is not given here.

Assays:
[1] = test system: A549; assay: Antiproliferative activity against human A549 cells assessed as cell growth inhibition incubated for 48 hrs by MTT assay; type: functional, cell-based; conditions: A549, 48 h
[2] = test system: HCT-116; assay: Antiproliferative activity against human HCT-116 cells assessed as cell growth inhibition incubated for 48 hrs by MTT assay; type: functional, cell-based; conditions: HCT-116, 48 h
[3] = test system: HCT-116; assay: Induction of intracellular ROS generation in human HCT-116 cells at 6.4 uM incubated for 48 hrs by DCFDA staining based fluorescence analysis; type: functional, cell-based
[4] = test system: HCT-116; assay: Induction of mitochondrial transmembrane potential loss in human HCT-116 cells assessed as reduction in red/green fluorescence ratio at 6.4 uM incubated for 48 hrs by JC-1 staining based fluorescence microscopic analysis; type: functional, cell-based
[5] = test system: HCT-116; assay: Induction of mitochondrial transmembrane potential loss in human HCT-116 cells assessed as reduction in red/green fluorescence ratio at 1.6 to 3.2 uM incubated for 48 hrs by JC-1 staining based fluorescence microscopic analysis; type: functional, cell-based; conditions: dose 1.6-3.2 µM
[6] = test system: HCT-116; assay: Induction of intracellular ROS generation in human HCT-116 cells at 1.6 to 3.2 uM incubated for 48 hrs by DCFDA staining based fluorescence analysis; type: functional, cell-based; conditions: dose 1.6-3.2 µM
[7] = test system: HCT-116; assay: Induction of apoptosis in human HCT-116 cells assessed as pyknotic/fragmented bright nucleus at 1.6 to 6.4 uM incubated for 48 hrs by DAPI staining based fluorescence microscopy; type: functional, cell-based; conditions: dose 1.6-6.4 µM
[8] = test system: HCT-116; assay: Induction of apoptosis in human HCT-116 cells assessed as cell shrinkage at 1.6 to 6.4 uM incubated for 48 hrs by phase-contrast microscopy; type: functional, cell-based; conditions: dose 1.6-6.4 µM
[9] = test system: HCT-116; assay: Induction of apoptosis in human HCT-116 cells assessed as reduction in number of viable cells at 1.6 to 6.4 uM incubated for 48 hrs by phase-contrast microscopy; type: functional, cell-based; conditions: dose 1.6-6.4 µM
[10] = test system: HCT-116; assay: Induction of apoptosis in human HCT-116 cells assessed as increase in necrotic cells by measuring ratio of orange-red fluorescence at 1.6 to 6.4 uM incubated for 48 hrs by Acridine orange/ethidium bromide staining based fluorescence microscopy; type: functional, cell-based; conditions: dose 1.6-6.4 µM
[11] = test system: HCT-116; assay: Induction of apoptosis in human HCT-116 cells assessed as increase in late apoptotic cells by measuring ratio of orange-red fluorescence at 1.6 to 6.4 uM incubated for 48 hrs by Acridine orange/ethidium bromide staining based fluorescence microscopy; type: functional, cell-based; conditions: dose 1.6-6.4 µM
[12] = test system: HCT-116; assay: Induction of apoptosis in human HCT-116 cells assessed as chromatin condensation at 1.6 to 6.4 uM incubated for 48 hrs by DAPI staining based fluorescence microscopy; type: functional, cell-based; conditions: dose 1.6-6.4 µM
[13] = test system: HCT-116; assay: Induction of apoptosis in human HCT-116 cells assessed as horse shoe-shaped nuclear morphological change at 1.6 to 6.4 uM incubated for 48 hrs by DAPI staining based fluorescence microscopy; type: functional, cell-based; conditions: dose 1.6-6.4 µM
[14] = test system: HCT-116; assay: Induction of apoptosis in human HCT-116 cells assessed as cell shape alteration at 1.6 to 6.4 uM incubated for 48 hrs by phase-contrast microscopy; type: functional, cell-based; conditions: dose 1.6-6.4 µM
[15] = test system: HCT-116; assay: Induction of apoptosis in human HCT-116 cells assessed as necrotic cells at 3.2 uM incubated for 48 hrs by annexin V-FITC and propidium iodide staining based flow cytometry (Rvb=13.42%); type: functional
[16] = test system: MCF7; assay: Antiproliferative activity against human MCF7 cells assessed as cell growth inhibition incubated for 48 hrs by MTT assay; type: functional, cell-based; conditions: MCF7, 48 h
[17] = test system: SK-MEL-28; assay: Antiproliferative activity against human SK-MEL-28 cells assessed as cell growth inhibition incubated for 48 hrs by MTT assay; type: functional, cell-based; conditions: SK-MEL-28, 48 h
[18] = Cytotoxicity against human HaCaT cells assessed as cell growth inhibition incubated for 48 hrs by MTT assay; type: toxicity, cell-based
[19] = test system: A549; assay: Antiproliferative activity against human A549 cells assessed as cell growth inhibition at 20 uM incubated for 48 hrs by MTT assay; type: functional
[20] = test system: HCT-116; assay: Antiproliferative activity against human HCT-116 cells assessed as cell growth inhibition at 20 uM incubated for 48 hrs by MTT assay; type: functional
[21] = test system: MCF7; assay: Antiproliferative activity against human MCF7 cells assessed as cell growth inhibition at 20 uM incubated for 48 hrs by MTT assay; type: functional
[22] = test system: SK-MEL-28; assay: Antiproliferative activity against human SK-MEL-28 cells assessed as cell growth inhibition at 20 uM incubated for 48 hrs by MTT assay; type: functional
[23] = test system: HCT-116; assay: Induction of apoptosis in human HCT-116 cells assessed as necrotic cells at 1.6 uM incubated for 48 hrs by annexin V-FITC and propidium iodide staining based flow cytometry (Rvb=13.42%); type: functional
[24] = test system: HCT-116; assay: Induction of apoptosis in human HCT-116 cells assessed as necrotic cells at 6.4 uM incubated for 48 hrs by annexin V-FITC and propidium iodide staining based flow cytometry (Rvb=13.42%); type: functional
[25] = test system: HCT-116; assay: Induction of apoptosis in human HCT-116 cells assessed as late apoptotic cells at 1.6 uM incubated for 48 hrs by annexin V-FITC and propidium iodide staining based flow cytometry (Rvb=13.51%); type: functional
[26] = test system: HCT-116; assay: Induction of apoptosis in human HCT-116 cells assessed as late apoptotic cells at 3.2 uM incubated for 48 hrs by annexin V-FITC and propidium iodide staining based flow cytometry (Rvb=13.51%); type: functional
[27] = test system: HCT-116; assay: Induction of apoptosis in human HCT-116 cells assessed as late apoptotic cells at 6.4 uM incubated for 48 hrs by annexin V-FITC and propidium iodide staining based flow cytometry (Rvb=13.51%); type: functional
[28] = test system: HCT-116; assay: Induction of apoptosis in human HCT-116 cells assessed as early apoptotic cells at 1.6 uM incubated for 48 hrs by annexin V-FITC and propidium iodide staining based flow cytometry (Rvb=4.44%); type: functional
[29] = test system: HCT-116; assay: Induction of apoptosis in human HCT-116 cells assessed as early apoptotic cells at 3.2 uM incubated for 48 hrs by annexin V-FITC and propidium iodide staining based flow cytometry (Rvb=4.44%); type: functional
[30] = test system: HCT-116; assay: Induction of apoptosis in human HCT-116 cells assessed as early apoptotic cells at 6.4 uM incubated for 48 hrs by annexin V-FITC and propidium iodide staining based flow cytometry (Rvb=4.44%); type: functional
[31] = test system: HCT-116; assay: Induction of apoptosis in human HCT-116 cells assessed as live cells at 1.6 uM incubated for 48 hrs by annexin V-FITC and propidium iodide staining based flow cytometry (Rvb=68.64%); type: functional
[32] = test system: HCT-116; assay: Induction of apoptosis in human HCT-116 cells assessed as live cells at 3.2 uM incubated for 48 hrs by annexin V-FITC and propidium iodide staining based flow cytometry (Rvb=68.64%); type: functional
[33] = test system: HCT-116; assay: Induction of apoptosis in human HCT-116 cells assessed as live cells at 6.4 uM incubated for 48 hrs by annexin V-FITC and propidium iodide staining based flow cytometry (Rvb=68.64%); type: functional
[34] = test system: HCT-116; assay: Anti-metastatic activity against human HCT-116 cells assessed as inhibition of cell migration by measuring wound width at 1.6 uM and measured at 0 hrs by scratch wound healing assay (Rvb=287.904 micrometer); type: functional
[35] = test system: HCT-116; assay: Anti-metastatic activity against human HCT-116 cells assessed as inhibition of cell migration by measuring wound width at 3.2 uM and measured at 0 hrs by scratch wound healing assay (Rvb=287.904 micrometer); type: functional
[36] = test system: HCT-116; assay: Anti-metastatic activity against human HCT-116 cells assessed as inhibition of cell migration by measuring wound width at 6.4 uM and measured at 0 hrs by scratch wound healing assay (Rvb=287.904 micrometer); type: functional
[37] = test system: HCT-116; assay: Anti-metastatic activity against human HCT-116 cells assessed as inhibition of cell migration by measuring wound width at 1.6 uM and measured at 48 hrs by scratch wound healing assay (Rvb=179.681 micrometer); type: functional
[38] = test system: HCT-116; assay: Anti-metastatic activity against human HCT-116 cells assessed as inhibition of cell migration by measuring wound width at 3.2 uM and measured at 48 hrs by scratch wound healing assay (Rvb=179.681 micrometer); type: functional
[39] = test system: HCT-116; assay: Anti-metastatic activity against human HCT-116 cells assessed as inhibition of cell migration by measuring wound width at 6.4 uM and measured at 48 hrs by scratch wound healing assay (Rvb=179.681 micrometer); type: functional
[40] = test system: HCT-116; assay: Anti-metastatic activity against human HCT-116 cells assessed as inhibition of cell migration at 1.6 to 6.4 uM and measured at 48 hrs by scratch wound healing assay; type: functional, cell-based; conditions: dose 1.6-6.4 µM
[41] = target: Epidermal growth factor receptor (Homo sapiens, UniProt P00533); assay: Inhibition of EGFR (unknown origin) using poly E4Y1 and ATP as substrate incubated for 60 mins by ADP-Glo kinase assay
Sequence of Epidermal growth factor receptor (P00533 whole entry): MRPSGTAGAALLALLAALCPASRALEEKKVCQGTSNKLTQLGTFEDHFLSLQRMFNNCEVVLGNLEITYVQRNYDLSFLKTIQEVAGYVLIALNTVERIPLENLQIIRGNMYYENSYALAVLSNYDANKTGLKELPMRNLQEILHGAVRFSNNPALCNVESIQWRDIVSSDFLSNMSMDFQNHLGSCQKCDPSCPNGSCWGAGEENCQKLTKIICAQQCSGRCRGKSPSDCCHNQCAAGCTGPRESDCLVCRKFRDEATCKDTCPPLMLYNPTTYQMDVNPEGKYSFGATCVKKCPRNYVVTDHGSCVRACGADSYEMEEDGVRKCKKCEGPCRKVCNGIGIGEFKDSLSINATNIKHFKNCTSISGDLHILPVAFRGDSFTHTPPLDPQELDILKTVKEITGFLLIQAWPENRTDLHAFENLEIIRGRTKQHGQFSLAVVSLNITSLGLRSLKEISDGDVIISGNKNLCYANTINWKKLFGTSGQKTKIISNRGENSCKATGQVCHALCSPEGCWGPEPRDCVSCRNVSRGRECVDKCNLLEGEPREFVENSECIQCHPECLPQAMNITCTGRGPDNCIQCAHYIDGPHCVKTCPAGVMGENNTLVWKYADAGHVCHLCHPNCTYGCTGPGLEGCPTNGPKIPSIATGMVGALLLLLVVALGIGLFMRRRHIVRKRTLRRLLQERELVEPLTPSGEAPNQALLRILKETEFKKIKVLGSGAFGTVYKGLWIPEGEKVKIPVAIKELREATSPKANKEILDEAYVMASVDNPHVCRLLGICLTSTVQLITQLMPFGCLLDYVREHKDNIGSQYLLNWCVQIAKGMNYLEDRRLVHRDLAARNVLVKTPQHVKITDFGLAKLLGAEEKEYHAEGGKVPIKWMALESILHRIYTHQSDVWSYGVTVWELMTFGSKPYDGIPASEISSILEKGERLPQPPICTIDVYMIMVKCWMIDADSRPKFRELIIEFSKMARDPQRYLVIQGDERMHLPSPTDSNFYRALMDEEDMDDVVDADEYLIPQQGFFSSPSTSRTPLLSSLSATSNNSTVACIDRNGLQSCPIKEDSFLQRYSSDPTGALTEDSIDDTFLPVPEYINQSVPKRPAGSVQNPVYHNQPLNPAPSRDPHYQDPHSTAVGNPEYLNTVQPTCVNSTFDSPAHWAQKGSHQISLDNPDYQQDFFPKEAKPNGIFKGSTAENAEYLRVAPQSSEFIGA

Compound: Cc1sc([Se]c2sc(C)c(-c3cccc(Br)c3)c2C(=O)NC(CO)C(=O)N2CCCC2)c(C(=O)NC(CO)C(=O)N2CCCC2)c1-c1cccc(Br)c1 (stereo unspecified)
- IC50 [1]: 7.86 µM
- IC50 [2]: 3.2 µM
- Activity [3]: Active
- Activity [4]: Active
- Activity [5]: Dose-Dependent Effect
- Activity [6]: Dose-Dependent Effect
- Activity [7]: Active
- Activity [8]: Dose-Dependent Effect
- Activity [9]: Dose-Dependent Effect
- Activity [10]: Dose-Dependent Effect
- Activity [11]: Dose-Dependent Effect
- Activity [12]: Active
- Activity [13]: Active
- Activity [14]: Dose-Dependent Effect
- Activity [15]: 12.61%
- IC50 [16]: 8.06 µM
- IC50 [17]: 8.81 µM
- IC50 at 48 h [18]: 24 µM
- inhibition at 20 µM [19]: 90%
- inhibition at 20 µM [20]: 75%
- inhibition at 20 µM [21]: 90%
- inhibition at 20 µM [22]: 78%
- Activity [23]: 10.1%
- Activity [24]: 5.47%
- Activity [25]: 27.98%
- Activity [26]: 43.71%
- Activity [27]: 88.93%
- Activity [28]: 8.97%
- Activity [29]: 11.75%
- Activity [30]: 3.04%
- Activity [31]: 52.95%
- Activity [32]: 32.12%
- Activity [33]: 2.56%
- Activity [34]: 257.433 um
- Activity [35]: 296.312 um
- Activity [36]: 275.298 um
- Activity [37]: 235.37 um
- Activity [38]: 276.354 um
- Activity [39]: 267.94 um
- Activity [40]: Dose-Dependent Effect
- IC50 [41]: 94.4 nM
